{"source": "paper PMC5218480", "about": "(PLoS ONE, 2017)", "system": "MV-4-11 cells", "experiment": "Gene expression microarray analysis (Affymetrix PrimeView) and GSEA", "type": "cell-based, human", "parameters": "RFU PODN (11730768_x_at) / Fold change /veh PODN (11730768_x_at) / RFU LINC00158 (11744669_a_at) / Fold change /veh LINC00158 (11744669_a_at) / RFU DUSP10 (11751237_a_at) / Fold change /veh DUSP10 (11751237_a_at) / RFU ID3 (11757404_x_at) / Fold change /veh ID3 (11757404_x_at) / RFU PLEKHG5 (11737974_s_at) / Fold change /veh PLEKHG5 (11737974_s_at) / RFU LRRC4B (11730491_at) / Fold change /veh LRRC4B (11730491_at) / RFU GIMAP4 (11747438_a_at) / Fold change /veh GIMAP4 (11747438_a_at) / RFU KRT8 (11758183_x_at) / Fold change /veh KRT8 (11758183_x_at) / RFU CNN1 (11734310_a_at) / Fold change /veh CNN1 (11734310_a_at) / RFU VPS37D (11726825_at) / Fold change /veh VPS37D (11726825_at) / RFU C10orf10 (11716522_x_at) / Fold change /veh C10orf10 (11716522_x_at) / RFU KIR2DL2 /// KIR2DL4 /// KIR2DL5A /// KIR2DL5B /// KIR2DS1 /// KIR2DS2 /// KIR2DS3 /// KIR2DS4 /// KIR3DL3 /// KIR3DL3 /// KIR3DS1 (11738374_at) / Fold change /veh KIR2DL2 /// KIR2DL4 /// KIR2DL5A /// KIR2DL5B /// KIR2DS1 /// KIR2DS2 /// KIR2DS3 /// KIR2DS4 /// KIR3DL3 /// KIR3DL3 /// KIR3DS1 (11738374_at) / RFU C1QL1 (11718748_at) / Fold change /veh C1QL1 (11718748_at) / RFU TMPRSS4 (11747572_a_at) / Fold change /veh TMPRSS4 (11747572_a_at) / RFU HAMP (11756126_x_at) / Fold change /veh HAMP (11756126_x_at) / RFU RNFT2 (11725882_a_at) / Fold change /veh RNFT2 (11725882_a_at) / RFU NR4A2 (11747474_a_at) / Fold change /veh NR4A2 (11747474_a_at) / RFU ABCC12 (11746883_a_at) / Fold change /veh ABCC12 (11746883_a_at) / RFU TMEM136 (11760407_x_at) / Fold change /veh TMEM136 (11760407_x_at) / RFU CLDN22 /// WWC2 (11732394_at) / Fold change /veh CLDN22 /// WWC2 (11732394_at) / RFU HLA-DPB1 (11760878_x_at) / Fold change /veh HLA-DPB1 (11760878_x_at) / RFU SPINT1 (11716480_a_at) / Fold change /veh SPINT1 (11716480_a_at) / RFU GAP43 (11754022_s_at) / Fold change /veh GAP43 (11754022_s_at) / RFU A4GNT (11735810_at) / Fold change /veh A4GNT (11735810_at) / RFU PRB3 (11715151_x_at) / Fold change /veh PRB3 (11715151_x_at) / RFU TUBB4B (11761932_at) / Fold change /veh TUBB4B (11761932_at) / RFU CAPN14 (11732068_a_at) / Fold change /veh CAPN14 (11732068_a_at) / RFU TMCC2 (11721928_a_at) / Fold change /veh TMCC2 (11721928_a_at) / RFU IRGQ (11745062_a_at) / Fold change /veh IRGQ (11745062_a_at) / RFU FAM174B (11720279_a_at) / Fold change /veh FAM174B (11720279_a_at) / RFU TMPRSS4 (11748680_a_at) / Fold change /veh TMPRSS4 (11748680_a_at) / RFU FAM212B (11763350_a_at) / Fold change /veh FAM212B (11763350_a_at) / RFU PLEKHG5 (11743358_a_at) / Fold change /veh PLEKHG5 (11743358_a_at) / RFU ZSCAN30 (11745921_a_at) / Fold change /veh ZSCAN30 (11745921_a_at) / RFU CMKLR1 (11741424_a_at) / Fold change /veh CMKLR1 (11741424_a_at) / RFU LOC101060620 /// MAPK8IP1 (11723275_at) / Fold change /veh LOC101060620 /// MAPK8IP1 (11723275_at) / RFU SPTSSB (11747773_x_at) / Fold change /veh SPTSSB (11747773_x_at) / RFU PRSS12 (11739890_at) / Fold change /veh PRSS12 (11739890_at) / RFU BIN1 (11741810_x_at) / Fold change /veh BIN1 (11741810_x_at) / RFU WNT11 (11732464_a_at) / Fold change /veh WNT11 (11732464_a_at) / RFU C10orf10 (11716521_a_at) / Fold change /veh C10orf10 (11716521_a_at) / RFU C5orf56 (11738089_at) / Fold change /veh C5orf56 (11738089_at) / RFU CYB561 (11721691_x_at) / Fold change /veh CYB561 (11721691_x_at) / RFU ANKRD19P (11752326_a_at) / Fold change /veh ANKRD19P (11752326_a_at) / RFU OR2T12 /// OR2T33 /// OR2T8 (11738714_s_at) / Fold change /veh OR2T12 /// OR2T33 /// OR2T8 (11738714_s_at) / RFU VCAN (11748164_a_at) / Fold change /veh VCAN (11748164_a_at) / RFU JSRP1 (11732532_at) / Fold change /veh JSRP1 (11732532_at) / RFU KRTAP10-11 (11738290_x_at) / Fold change /veh KRTAP10-11 (11738290_x_at) / RFU MYO3A (11730013_a_at) / Fold change /veh MYO3A (11730013_a_at) / RFU EBF3 (11725865_a_at) / Fold change /veh EBF3 (11725865_a_at) / RFU CAMK2N1 (11719241_x_at) / Fold change /veh CAMK2N1 (11719241_x_at) / RFU C5orf56 (11738088_a_at) / Fold change /veh C5orf56 (11738088_a_at) / RFU OLFML3 (11715873_a_at) / Fold change /veh OLFML3 (11715873_a_at) / RFU LOC100653217 /// NTM (11731650_a_at) / Fold change /veh LOC100653217 /// NTM (11731650_a_at) / RFU MAPK11 (11762145_a_at) / Fold change /veh MAPK11 (11762145_a_at) / RFU FIZ1 (11724087_x_at) / Fold change /veh FIZ1 (11724087_x_at) / RFU OASL (11726364_x_at) / Fold change /veh OASL (11726364_x_at) / RFU SOX15 (11748057_x_at) / Fold change /veh SOX15 (11748057_x_at) / RFU CD79A (11719716_a_at) / Fold change /veh CD79A (11719716_a_at) / RFU HIST1H1D (11736915_at) / Fold change /veh HIST1H1D (11736915_at) / RFU CASKIN2 (11723855_a_at) / Fold change /veh CASKIN2 (11723855_a_at) / RFU LOC730098 (11760151_x_at) / Fold change /veh LOC730098 (11760151_x_at) / RFU OR4N2 (11742367_at) / Fold change /veh OR4N2 (11742367_at) / RFU PRRT2 (11749266_a_at) / Fold change /veh PRRT2 (11749266_a_at) / RFU SNX32 (11753110_a_at) / Fold change /veh SNX32 (11753110_a_at) / RFU CDHR5 (11726645_a_at) / Fold change /veh CDHR5 (11726645_a_at) / RFU RCAN1 (11760418_a_at) / Fold change /veh RCAN1 (11760418_a_at) / RFU FAM167A (11723789_a_at) / Fold change /veh FAM167A (11723789_a_at) / RFU FAM26E (11764081_at) / Fold change /veh FAM26E (11764081_at) / RFU ISYNA1 (11749810_s_at) / Fold change /veh ISYNA1 (11749810_s_at) / RFU ACY1 (11761880_at) / Fold change /veh ACY1 (11761880_at) / RFU 11764098_at / Fold change /veh 11764098_at / RFU SAMD14 (11745864_x_at) / Fold change /veh SAMD14 (11745864_x_at) / RFU NPB (11741838_a_at) / Fold change /veh NPB (11741838_a_at) / RFU TMPRSS6 (11731388_a_at) / Fold change /veh TMPRSS6 (11731388_a_at) / RFU KRTAP10-2 (11738614_at) / Fold change /veh KRTAP10-2 (11738614_at) / RFU ARHGAP8 /// PRR5-ARHGAP8 (11727945_x_at) / Fold change /veh ARHGAP8 /// PRR5-ARHGAP8 (11727945_x_at) / RFU KRTAP5-7 /// NADSYN1 (11734609_at) / Fold change /veh KRTAP5-7 /// NADSYN1 (11734609_at) / RFU RASL12 (11751679_a_at) / Fold change /veh RASL12 (11751679_a_at) / RFU CDKN2B (11736163_a_at) / Fold change /veh CDKN2B (11736163_a_at) / RFU PRF1 (11729649_at) / Fold change /veh PRF1 (11729649_at) / RFU, ZNF638 /// ZNF638-IT1 / Fold change vs veh, ZNF638 /// ZNF638-IT1 / RFU, PANK3 / Fold change vs veh, PANK3 / RFU, SH3YL1 / Fold change vs veh, SH3YL1 / RFU, ZEB2 / Fold change vs veh, ZEB2 / RFU, NRIP1 / Fold change vs veh, NRIP1 / RFU, PTTG1IP / Fold change vs veh, PTTG1IP / RFU, CAPN2 / Fold change vs veh, CAPN2 / RFU, MED14 / Fold change vs veh, MED14 / RFU, SNORA58 / Fold change vs veh, SNORA58 / RFU, C1orf63 / Fold change vs veh, C1orf63 / RFU, LRRFIP1 / Fold change vs veh, LRRFIP1 / RFU, NDUFAF7 / Fold change vs veh, NDUFAF7 / RFU, SLC12A2 / Fold change vs veh, SLC12A2 / RFU, IBTK / Fold change vs veh, IBTK / RFU, ESF1 / Fold change vs veh, ESF1 / Fold change vs veh, TMEM50B / RFU, TAOK1 / Fold change vs veh, TAOK1 / RFU, ACBD3 / Fold change vs veh, ACBD3 / RFU, TMA16 / Fold change vs veh, TMA16 / RFU, RWDD3 / Fold change vs veh, RWDD3 / RFU, BCAT1 / Fold change vs veh, BCAT1 / RFU, EDEM3 / Fold change vs veh, EDEM3 / RFU, TMEM33 / Fold change vs veh, TMEM33 / RFU, WDR75 / Fold change vs veh, WDR75 / RFU, AHCTF1 / Fold change vs veh, AHCTF1 / RFU, TFRC / Fold change vs veh, TFRC / RFU, ZDHHC17 / Fold change vs veh, ZDHHC17 / RFU, NOM1 / Fold change vs veh, NOM1 / RFU, ARL8B / Fold change vs veh, ARL8B / RFU, ZBTB11 / Fold change vs veh, ZBTB11 / RFU, TAMM41 / Fold change vs veh, TAMM41 / RFU, KIAA1704 /// LOC100996395 / Fold change vs veh, KIAA1704 /// LOC100996395 / RFU, ING1 / Fold change vs veh, ING1 / RFU, TRMT61B / Fold change vs veh, TRMT61B / RFU, FUBP3 / Fold change vs veh, FUBP3 / RFU, TP53 / Fold change vs veh, TP53 / RFU, TNKS2 / Fold change vs veh, TNKS2 / RFU, ZFP14 / Fold change vs veh, ZFP14 / RFU, ACTR2 / Fold change vs veh, ACTR2 / RFU, PPP3R1 / Fold change vs veh, PPP3R1 / RFU, PIK3R1 / Fold change vs veh, PIK3R1 / RFU, HNRNPA1 / Fold change vs veh, HNRNPA1 / RFU, RNF170 / Fold change vs veh, RNF170 / RFU, ZNF28 / Fold change vs veh, ZNF28 / RFU, RNGTT / Fold change vs veh, RNGTT / RFU, OGT / Fold change vs veh, OGT / RFU, BRD1 / Fold change vs veh, BRD1 / RFU, MARS / Fold change vs veh, MARS / RFU, ZNF655 / Fold change vs veh, ZNF655 / RFU, FAHD1 / Fold change vs veh, FAHD1 / RFU, BDP1 / Fold change vs veh, BDP1 / RFU, LRRCC1 / Fold change vs veh, LRRCC1 / RFU, ARID1A / Fold change vs veh, ARID1A / RFU, ZNF146 / Fold change vs veh, ZNF146 / RFU, ZNF330 / Fold change vs veh, ZNF330 / RFU, GPN3 / Fold change vs veh, GPN3 / RFU, C9orf123 / Fold change vs veh, C9orf123 / RFU, N4BP2L2 / Fold change vs veh, N4BP2L2 / RFU, ARFIP1 / Fold change vs veh, ARFIP1 / RFU, FAM179B / Fold change vs veh, FAM179B / RFU, BCL10 / Fold change vs veh, BCL10 / RFU, UHRF1BP1L / Fold change vs veh, UHRF1BP1L / RFU, BET1 / Fold change vs veh, BET1 / RFU, CNOT2 / Fold change vs veh, CNOT2 / RFU, ZNF268 / Fold change vs veh, ZNF268 / Fold change vs veh, ZNF507 / RFU, DGCR2 / Fold change vs veh, DGCR2 / RFU, WDSUB1 / Fold change vs veh, WDSUB1 / Fold change vs veh, HSP90B1 /// MIR3652 / RFU, ADSS / Fold change vs veh, ADSS / RFU, GK / Fold change vs veh, GK / RFU, ZNF148 / Fold change vs veh, ZNF148 / RFU, TAF9 / Fold change vs veh, TAF9 / RFU, SLC1A5 / Fold change vs veh, SLC1A5 / RFU, SLMO2 / Fold change vs veh, SLMO2 / RFU, ABCC4 / Fold change vs veh, ABCC4 / RFU, LOC101060439 /// RAP1B / Fold change vs veh, LOC101060439 /// RAP1B / RFU, RFX7 / Fold change vs veh, RFX7 / RFU, GTPBP10 / Fold change vs veh, GTPBP10 / RFU, CNEP1R1 / Fold change vs veh, CNEP1R1 / RFU, BIVM-ERCC5 /// ERCC5 / Fold change vs veh, BIVM-ERCC5 /// ERCC5 / RFU, ILF3 / Fold change vs veh, ILF3 / RFU 11762660_at / Fold change /veh 11762660_at / RFU VCAN (11757783_s_at) / Fold change /veh VCAN (11757783_s_at) / RFU DDX43 (11728927_at) / Fold change /veh DDX43 (11728927_at) / RFU KRT8 (11758188_x_at) / Fold change /veh KRT8 (11758188_x_at) / RFU NKD1 (11759106_at) / Fold change /veh NKD1 (11759106_at) / RFU SRD5A1 (11742802_a_at) / Fold change /veh SRD5A1 (11742802_a_at) / RFU TPSAB1 /// TPSB2 (11721975_s_at) / Fold change /veh TPSAB1 /// TPSB2 (11721975_s_at) / RFU GSTM3 (11746129_a_at) / Fold change /veh GSTM3 (11746129_a_at) / RFU IL23R (11737362_x_at) / Fold change /veh IL23R (11737362_x_at) / RFU TMEM51 (11727254_a_at) / Fold change /veh TMEM51 (11727254_a_at) / RFU PIWIL2 (11732686_x_at) / Fold change /veh PIWIL2 (11732686_x_at) / RFU ORM1 (11744905_x_at) / Fold change /veh ORM1 (11744905_x_at) / RFU CCDC152 (11743942_at) / Fold change /veh CCDC152 (11743942_at) / RFU ECM1 (11717891_a_at) / Fold change /veh ECM1 (11717891_a_at) / RFU IL23R (11748794_a_at) / Fold change /veh IL23R (11748794_a_at) / RFU TNFAIP8L3 (11732012_x_at) / Fold change /veh TNFAIP8L3 (11732012_x_at) / RFU MBOAT4 (11741988_at) / Fold change /veh MBOAT4 (11741988_at) / RFU 11764193_at / Fold change /veh 11764193_at / RFU TMEM53 (11763286_at) / Fold change /veh TMEM53 (11763286_at) / RFU MAGEB2 (11727129_at) / Fold change /veh MAGEB2 (11727129_at) / RFU TMEM200A (11744735_a_at) / Fold change /veh TMEM200A (11744735_a_at) / RFU CCDC152 (11751479_a_at) / Fold change /veh CCDC152 (11751479_a_at) / RFU FAM211A (11726209_a_at) / Fold change /veh FAM211A (11726209_a_at) / RFU RGS16 (11746705_a_at) / Fold change /veh RGS16 (11746705_a_at) / RFU VCAN (11755009_s_at) / Fold change /veh VCAN (11755009_s_at) / RFU RHOB (11743442_s_at) / Fold change /veh RHOB (11743442_s_at) / RFU RGS16 (11720943_a_at) / Fold change /veh RGS16 (11720943_a_at) / RFU RGS16 (11720944_at) / Fold change /veh RGS16 (11720944_at) / RFU, VPS4B / Fold change vs veh, VPS4B / RFU, CREB1 / Fold change vs veh, CREB1 / RFU, DNAJC13 / Fold change vs veh, DNAJC13 / RFU, GNAQ / Fold change vs veh, GNAQ / RFU, CDK5R1 / Fold change vs veh, CDK5R1 / RFU, ZRANB3 / Fold change vs veh, ZRANB3 / RFU, CUL4A / Fold change vs veh, CUL4A / RFU, CCNY / Fold change vs veh, CCNY / RFU, UFL1 / Fold change vs veh, UFL1 / RFU, COG3 / Fold change vs veh, COG3 / RFU, DIAPH2 / Fold change vs veh, DIAPH2 / RFU, SKA2 / Fold change vs veh, SKA2 / RFU, AFF3 / Fold change vs veh, AFF3 / RFU, LMF1 / Fold change vs veh, LMF1 / RFU, IPO11 / Fold change vs veh, IPO11 / RFU, DFFB / Fold change vs veh, DFFB / RFU, FOXP1 / Fold change vs veh, FOXP1 / RFU, CARD8 / Fold change vs veh, CARD8 / RFU, STRN3 / Fold change vs veh, STRN3 / RFU, ADK / Fold change vs veh, ADK / RFU, RASSF2 / Fold change vs veh, RASSF2 / RFU, WIPF1 / Fold change vs veh, WIPF1 / RFU, LARP1B / Fold change vs veh, LARP1B / RFU, RASA1 / Fold change vs veh, RASA1 / RFU, RB1 / Fold change vs veh, RB1 / RFU, PPFIA1 / Fold change vs veh, PPFIA1 / RFU, MAT2A / Fold change vs veh, MAT2A / RFU, CCT5 / Fold change vs veh, CCT5 / RFU, WDR92 / Fold change vs veh, WDR92 / RFU, CUX1 / Fold change vs veh, CUX1 / RFU, TTC7A / Fold change vs veh, TTC7A / RFU, TMEM135 / Fold change vs veh, TMEM135 / RFU, DEPTOR / Fold change vs veh, DEPTOR / RFU, CPM / Fold change vs veh, CPM / RFU, DNAJB6 / Fold change vs veh, DNAJB6 / RFU, CACNA2D3 / Fold change vs veh, CACNA2D3 / RFU, DTX4 / Fold change vs veh, DTX4 / RFU, TFCP2 / Fold change vs veh, TFCP2 / RFU, GMCL1 /// GMCL1P1 / Fold change vs veh, GMCL1 /// GMCL1P1 / RFU, AEBP2 / Fold change vs veh, AEBP2 / RFU, SNHG1 /// SNORD22 /// SNORD25 /// SNORD26 /// SNORD27 /// SNORD28 /// SNORD29 /// SNORD31 / Fold change vs veh, SNHG1 /// SNORD22 /// SNORD25 /// SNORD26 /// SNORD27 /// SNORD28 /// SNORD29 /// SNORD31 / Fold change (Aza/veh), C12orf56 (ProbeSet 11735607_a_at) / Fold change (ACY-1035/veh), C12orf56 (ProbeSet 11735607_a_at) / Fold change (Aza/veh), FGFR1OP (ProbeSet 11751329_s_at) / Fold change (ACY-1035/veh), FGFR1OP (ProbeSet 11751329_s_at) / Fold change (Aza/veh), VPS36 (ProbeSet 11739960_a_at) / Fold change (ACY-1035/veh), VPS36 (ProbeSet 11739960_a_at) / RFU SYPL1 (11715823_x_at) / Fold change /veh SYPL1 (11715823_x_at) / RFU IGFBP7 (11715501_s_at) / Fold change /veh IGFBP7 (11715501_s_at) / RFU REEP3 (11722064_at) / Fold change /veh REEP3 (11722064_at) / RFU IGLL1 (11728026_x_at) / Fold change /veh IGLL1 (11728026_x_at): dose or concentration left out as unconfirmed", "details": "MV-4-11 cells, 48 hours", "data": [{"smiles": "Nc1ccc(-c2cccs2)cc1NC(=O)c1ccc2c(c1)cc(C1CC1)n2CCN1CCOCC1", "note": "[ACY-1035]", "values": [{"measurement": "Fold change /veh SPTSSB (11747773_x_at)", "value": 0.98}]}]}
